Measurements from PubChem BioAssay AID463204 (Broad Institute, 2010).
The source made the active and inactive calls.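 Rule for the calls: active = AC50 no more than ten times the top concentration tested, that is within one log above it; inconclusive = flat curve fit with activity between 30% and 70%, or invalid poor fit; inactive = AC50 beyond ten times the top tested dose.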

Tested on: S. cerevisiae Mot1-301 ts growth rescue, BacTiter-Glo ATP luminescence
Assay: growth rescue of Mot1-301 ts yeast, confirmation, SUMOylation pathway inhibitor project, whole organism, S. cerevisiae, Mot1-301 ts mutant, luminescence, dose retest (AID 463204);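 note: growth at restrictive 38.5 degrees C of Mot1-301 OY566 strain; actives raise luminescence by restoring growth of the ts mutant at high temperature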

| SMILES | AC50 |
| --- | --- |
| CCOP(=O)(OCC)C(NC(=O)c1cccc([N+](=O)[O-])c1)C(Cl)(Cl)Cl (stereo unspecified) | > 42 µM (inactive) |
| O=C(Cc1ccc(Cl)cc1Cl)OCC(=O)c1ccc[nH]1 | > 42 µM (inactive) |
| CN(c1cccnc1)c1ncnc2[nH]ncc12 | > 42 µM (inactive) |
| Cc1cc(C)n(-c2nc3ccccc3nc2N2CCN(C(=O)c3ccccc3)CC2)n1 | > 42 µM (inactive) |
| CCOC(=O)C1CCN(C(=O)c2ccc3c(c2)NC(=O)/C(=C/c2ccccc2)S3)CC1 | > 42 µM (inactive) |
| CCc1ccc2nc(-c3cccc(C)c3)nc(SCC(=O)NCC3CCCO3)c2c1 (stereo unspecified) | > 42 µM (inactive) |
| N#Cc1ccc2[nH]c(CO)c(-c3ccccc3)c2c1 | > 42 µM (inactive) |
| CC(NC(=O)C1CCCCC1)C(=O)NC1=NCCS1 (stereo unspecified) | > 42 µM (inactive) |
| CCOC(=O)c1cc2sc(C)cc2n1CC(=O)Nc1ccc2c(c1)OCCO2 | > 42 µM (inactive) |
| CSc1cccc(N2C(=O)C3CCCN3C2=S)c1 (stereo unspecified) | > 42 µM (inactive) |
| CC(C(=O)NCCN1CCOCC1)(c1ccccc1)c1ccccc1 | > 42 µM (inactive) |
| O=C(NCC(=O)N(c1ccccc1)C(C(=O)NCC1CCCO1)c1ccccc1)c1cccs1 (stereo unspecified) | > 42 µM (inactive) |
| CCOC(=O)C1(Cc2cccc(F)c2)CCN(C(=O)c2cnccn2)CC1 | > 42 µM (inactive) |
| CS(=O)(=O)N(CCc1ccccc1)CC(=O)NCc1cccnc1 | > 42 µM (inactive) |
| CCc1ccccc1NC1c2ccccc2C(=O)N1c1cccnc1 (stereo unspecified) | > 42 µM (inactive) |
| Cc1ccc(-c2ccc(/C=N/n3cnnc3)o2)cc1 | > 42 µM (inactive) |
| N#C/C(=N\Nc1cccc(F)c1)C(=N)N1CCCCCC1 | > 42 µM (inactive) |
| CCN(CC)c1ccc(Nc2cc3n(c(=O)n2)CCc2cc(OC)c(OC)cc2-3)cc1 | > 42 µM (inactive) |
| CCOC(=O)CN1NC2(CCC(C(C)(C)C)CC2)NC1=S (stereo unspecified) | > 42 µM (inactive) |
| NC(=O)CN1CCOCCN(CC(N)=O)CCOCC1 | > 42 µM (inactive) |
| Cn1cc(C(=O)Cc2ccccc2)c2ccccc21 | > 42 µM (inactive) |
| CCOc1ccc(NC(=O)CNc2ccc(C)cc2Cl)cc1 | > 42 µM (inactive) |
| COc1cc(/C=N/NC(=O)c2ccncc2)ccc1OC(=O)c1ccco1 | > 42 µM (inactive) |
| O=C(Nc1cccc(Cl)c1)OCc1cncs1 | > 42 µM (inactive) |
| O=C1CN(C(=O)COC(=O)CCNS(=O)(=O)c2ccc(Cl)cc2)c2ccccc2N1 | > 42 µM (inactive) |
| COc1ccccc1CNC(=O)C1CCC(CNS(=O)(=O)c2ccc(C)cc2)CC1 (stereo unspecified) | > 42 µM (inactive) |

| SMILES | AC50 |
| --- | --- |
| Cc1ccc(C2=NN(CC(=O)NCc3cccs3)C(=O)CC2)cc1 | > 42 µM (inactive) |
| O=C(Cc1ccc(Cl)cc1)NC(=S)Nc1ccccc1N1CCOCC1 | > 42 µM (inactive) |
| OCC[C@@H]1C[C@H](O)[C@@H](O)[C@]2(CCc3ccccc3CO2)O1 | > 42 µM (inactive) |
| CCCOC(=O)C1=C(C)NC2=C(C(=O)CCC2)C1c1cccs1 (stereo unspecified) | > 42 µM (inactive) |
| Cc1nnc(N=c2ssnc2Cl)o1 | 3.31 µM |
| CC1C(=O)CC(c2ccccc2)N(C)C1c1ccccc1 (stereo unspecified) | 33.7 µM |
| CCOC(=O)Cn1c(C)c(Br)c(=O)c2cccc(C)c21 | > 42 µM (inactive) |
| O=C(CCCC(=O)N(CC(=O)NC1CCCC1)c1cccc(F)c1)Nc1ccccn1 | > 42 µM (inactive) |
| CCOc1ccc(-n2cc(C(=O)NCCOC)c3cc(OC)c(OC)cc3c2=O)cc1 | > 42 µM (inactive) |
| COc1ccc(Cl)cc1N(C(=O)c1ccco1)C(C(=O)NC1CCCC1)c1ccncc1 (stereo unspecified) | > 42 µM (inactive) |
| COC(=O)c1cc(N=Nc2c(C)[nH]c3ccccc23)cc(C(=O)OC)c1 | > 42 µM (inactive) |
| Nc1ncnc2nc(SCC(=O)N3CCN(c4ccccc4)CC3)[nH]c12 | > 42 µM (inactive) |
| CC(SC#N)C(=O)C12CC3CC(CC(C3)C1)C2 (stereo unspecified) | 6.33 µM |
| CCCS(=O)(=O)N1CCC(C(=O)N2CCc3ccccc3C2)CC1 | > 42 µM (inactive) |
| CCCN1C(=O)c2[nH]nc(-c3cc(Cl)c(C)cc3O)c2C1c1ccc(O)c(OC)c1 (stereo unspecified) | > 42 µM (inactive) |
| C/C(CC(=O)NC1CCCCC1)=N\NC(=O)Cc1ccc(-c2ccccc2)cc1 | > 42 µM (inactive) |
| CCOc1ccc(/C=N/NS(=O)(=O)c2ccc(C)cc2)cc1OC | > 42 µM (inactive) |
| CCOc1ccc(Br)cc1S(=O)(=O)N1CCC(C(N)=O)CC1 | > 42 µM (inactive) |
| CCOC(=O)c1sc(N/N=C/c2ccc(N(C)C)cc2)nc1C | > 42 µM (inactive) |
| Cc1cc(C)cc(C(=O)N2CCC3(CC2)NCCc2[nH]cnc23)c1 | > 42 µM (inactive) |
| O=C(Nc1cccc(C(=O)Nc2ccc(F)cc2F)c1)c1ccccc1 | > 42 µM (inactive) |
| CCN(C(=O)COC(=O)c1cc([N+](=O)[O-])ccc1N1CCOCC1)C1CCCCC1 | > 42 µM (inactive) |
| Cc1ccc(-c2nnc(SCC#N)n2N)cc1 | > 42 µM (inactive) |
| O=C1C2C(c3ccccc3)CC=CC2[C@H](c2ccc3ccccc3c2)N1Cc1ccccc1 (stereo partly specified) | 11.3 µM |
| COc1ccc(-n2c(-c3ccccc3)nc3ccccc3c2=O)cc1 | > 42 µM (inactive) |
| CC[n+]1c(/C=C(\C)SC)sc2ccccc21 | 29.5 µM |

| SMILES | AC50 |
| --- | --- |
| CN1C(=O)/C(=C/c2ccc(OCc3ccccc3F)cc2)NC1=S | > 42 µM (inactive) |
| Clc1ccc(CN(Cc2ccccc2)C(c2cccs2)c2nnnn2C2CCCC2)cc1 (stereo unspecified) | > 42 µM (inactive) |
| Cc1c(NC(=O)C(C)Sc2nnc(-c3ccccc3)o2)c(=O)n(-c2ccccc2)n1C (stereo unspecified) | > 42 µM (inactive) |
| CCN(CC)c1ccc(C=C2C(=O)OC(c3ccccc3)OC2=O)cc1 (stereo unspecified) | > 42 µM (inactive) |
| O=C(COc1ncnc2ccccc12)Nc1ccc(Cl)c(S(=O)(=O)N2CCOCC2)c1 | > 42 µM (inactive) |
| COC(C(=O)Nc1ccnn1C1CCN(Cc2cnn(C)c2)CC1)c1ccccc1 (stereo unspecified) | > 42 µM (inactive) |
| N[C@@H](Cc1ccc(O)c(I)c1)C(=O)O | > 42 µM (inactive) |
| CN(Cc1ccccc1)c1ccc(S(=O)(=O)N2CCC(C(=O)O)CC2)cc1[N+](=O)[O-] | > 42 µM (inactive) |
| COc1cccc(OC)c1C(=O)Nc1ccc2c(c1)N(S(=O)(=O)c1cccs1)CCC2 | > 42 µM (inactive) |
| COCCN1C=C(C(=O)OC)C(c2cc3c(cc2Br)OCO3)C(C(=O)OC)=C1 | > 42 µM (inactive) |
| CC(=O)N1N=C(N)SC12CCCC2 | > 42 µM (inactive) |
| Oc1c(Br)cc(Br)cc1C=Nc1cccnc1 | 4.88 µM |
| CCn1c(N2CCN(C(=O)C34CC5CC(CC(C5)C3)C4)CC2)nc2ccccc21 | > 42 µM (inactive) |
| CCOC(=O)C1CCN(C(=O)c2sccc2Cl)CC1 | > 42 µM (inactive) |
| CC(C)c1ccc(-c2cc(C(=O)N3CCOCC3)c3cc(Br)ccc3n2)cc1 | > 42 µM (inactive) |
| C[C@H](NC(=O)OC(C)(C)C)C(=O)NCC1CCC(C(=O)N[C@@H](Cc2ccccc2)C(=O)O)CC1 (stereo partly specified) | > 42 µM (inactive) |
| CCNc1ccccc(C(=O)/C=C/c2ccc3c(c2)OCO3)c1=O | > 42 µM (inactive) |
| CCOc1ccc(N(CC)S(=O)(=O)c2cccc3nsnc23)cc1 | > 42 µM (inactive) |
| CC1CC(N(C(=O)c2ccccc2Cl)c2ccccc2)c2ccccc2N1 (stereo unspecified) | > 42 µM (inactive) |
| O=C(O)c1cn(Cc2ccccn2)c(=O)c2ccccc12 | > 42 µM (inactive) |
| Nc1nnc(COc2ccc(Br)cc2Br)s1 | > 42 µM (inactive) |
| Cc1cc(CNC(=O)C2CCC(=O)N(Cc3ccccc3F)C2)on1 (stereo unspecified) | > 42 µM (inactive) |
| COc1cccc(-c2ocnc2C(=O)Nc2ccc3c(c2)CCC3)c1 | > 42 µM (inactive) |
| CCCCn1c(=O)[nH]c(=O)c2c1nc(COc1ccc(C#N)cc1)n2CCC | > 42 µM (inactive) |
| O=C(CCC1CCCN(C(=O)Cc2cccc(F)c2)C1)N1CCN(c2ccccn2)CC1 (stereo unspecified) | > 42 µM (inactive) |
| CCOC(=O)CNC(=O)c1c(C)nn(C)c1Cl | > 42 µM (inactive) |

| SMILES | AC50 |
| --- | --- |
| Cc1ccc2nc(NC(=O)C3CCN(S(=O)(=O)c4cccnc4)CC3)sc2c1 | > 42 µM (inactive) |
| O=S(=O)(Cc1ccccc1)N1CCN(c2ccccc2)CC1 | > 42 µM (inactive) |
| Cc1cc(C)cc(-n2ncc3c2CCCC3NC(=O)c2cc(C)[nH]n2)c1 (stereo unspecified) | > 42 µM (inactive) |
| O=C(Nc1ccccc1F)C1CCN(C(=O)Cc2ccccc2)CC1 | > 42 µM (inactive) |
| Cc1nn(CC(=O)Nc2ccccn2)c(C)c1[N+](=O)[O-] | > 42 µM (inactive) |
| CC1(C)C2CC=C(/C=N/NC(=S)Nc3cccnc3)C1C2 (stereo unspecified) | > 42 µM (inactive) |
| NC(=O)NC(=O)CSc1nc(C2CCCCC2)n(-c2ccccc2)n1 | > 42 µM (inactive) |
| O=C(O)CN(c1ccccn1)S(=O)(=O)c1ccc(Cl)cc1 | > 42 µM (inactive) |
| c1coc(C2OCC3(CO2)COC(c2ccco2)OC3)c1 (stereo unspecified) | > 42 µM (inactive) |
| CCn1c(SCc2nc3ccccc3[nH]2)nnc1-c1cccnc1 | > 42 µM (inactive) |
| COc1ccccc1NC(=O)CN(c1ccc(C)cc1)S(=O)(=O)c1c(C)n[nH]c1C | > 42 µM (inactive) |
| NC(=O)c1cccc2cc3ccccc3cc12 | > 42 µM (inactive) |
| COc1ccc(S(=O)(=O)N2CCCOC2CNC(=O)C(=O)NCCCN2CCOCC2)cc1C (stereo unspecified) | > 42 µM (inactive) |
| N#Cc1c(-c2ccco2)cc(-c2cccnc2)nc1N | > 42 µM (inactive) |
| O=C(O)c1c(C(=O)O)c(-c2ccc(F)cc2)n2c1CCC2 | > 42 µM (inactive) |
| O=C(CCSc1nnnn1-c1ccccc1)N1CCOCC1 | > 42 µM (inactive) |
| O=C(N/C(=C/c1ccc2c(c1)OCO2)C(=O)N1CCOCC1)c1cccs1 | > 42 µM (inactive) |
| S=C(NCCc1c[nH]c2ccccc12)NC1CC1 | > 42 µM (inactive) |
| Cc1nc(NC(=O)CSc2nc(N)cc(N)n2)sc1C | > 42 µM (inactive) |
| CN1c2ccccc2-c2nc3ccccc3n2C1c1ccncc1 (stereo unspecified) | > 42 µM (inactive) |
| CCN(CC)CCCN1C(=O)C(=O)/C(=C(/O)c2ccccc2)C1c1cc(OC)ccc1OC (stereo unspecified) | > 42 µM (inactive) |
| CCOc1ccccc1/C=N\Nc1cnn(Cc2ccccc2)c(=O)c1Cl | > 42 µM (inactive) |
| COc1cc(CN2CCCC(CO)(Cc3cccc(Cl)c3)C2)cc2c1OCO2 (stereo unspecified) | > 42 µM (inactive) |
